The text below walks through data of US12630534B2 (TAKEDA PHARMACEUTICAL COMPANY LIMITED, priority 2020, dated 2026).

One assay deals with T1, human GPR139 (Homo sapiens, UniProt Q6DWJ6).
T1 construct: expressed in transfected cells; host or cells: CHO-TREx (Life Technologies) cells, expression induced with doxycycline
T1 sequence (Q6DWJ6 1-353): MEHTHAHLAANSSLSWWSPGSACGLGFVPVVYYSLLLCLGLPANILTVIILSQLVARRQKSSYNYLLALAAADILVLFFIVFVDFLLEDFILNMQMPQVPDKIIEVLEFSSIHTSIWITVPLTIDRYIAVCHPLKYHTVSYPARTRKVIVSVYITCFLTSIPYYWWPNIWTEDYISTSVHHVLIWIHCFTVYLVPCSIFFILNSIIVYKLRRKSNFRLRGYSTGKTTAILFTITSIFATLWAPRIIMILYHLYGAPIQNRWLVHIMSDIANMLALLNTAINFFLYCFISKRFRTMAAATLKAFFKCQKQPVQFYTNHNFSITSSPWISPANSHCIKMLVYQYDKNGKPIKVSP
As to the kind of experiment: Inhibition rate of the amount of IP1 in GPR139-expressed CHO cells (inverse agonist assay, Test Example 2). The assay is classed as cell-based. Conditions: CHO, relative value, inhibition rate of Example Compound 2 in Test Example 1 defined as 100%. The method, then: The measurement of IP1 was made using an IP-ONE HTFR assay kit (cis-bio) and CHO-TREx (Life Technologies) cells stably transfected with GPR139. The CHO-TREx cells expressed human GPR139 with a tetracycline-inducing element. The cells were cultured in a medium containing F12K and 10% tetracycline-free FBS, and the expression of human GPR139 was induced over the course of 17 hours under conditions of 37° C. and 5% CO2 in the presence of 2 μg/mL of doxycycline (Clontech, 631311) in the growth medium on the day before assay. On the day of the test, after the cells were washed with 10 mL of PBS, the cells were detached with TrypLE Express (Life Technologies) and centrifuged at 1,000 rpm to form pellets, and a cell suspension was then prepared using a stimulation buffer (cis-bio, included in the IP-ONE HTRF assay kit).
The compound was diluted with the stimulation buffer, and 4 μL was added to a 384-well white assay plate (Greiner). The cell suspension was added so that there were 2000 cells per well, and the assay plate was left to stand for 40 minutes at 37° C. Equal amounts of IP1-d2 and Ab-Crp solutions (both available from cis-bio, included in the IP-ONE HTRF assay kit) prepared with a lysis buffer (cis-bio, included in the IP-ONE HTRF assay kit) were mixed, and 4 μL was added to the assay plate and left to stand for one hour at room temperature. After the fluorescence strengths of two wavelengths were measured by the HTRF settings of Envision (PerkinElmer), the value of Ratio={(Signal 665 nm)/(Signal 615 nm)}×10000 was calculated.
Measurement of the Inhibition Rate of the Amount of IP1 in GPR139-Expressed CHO Cells (Inverse Agonist Assay)
The activities of the compounds of Examples 1 and 3 to 167 were expressed as relative values in Table 2 by measuring the inhibition rate of the amount of IP1 with the same method as in Test Example 1 and defining the inhibition rate of the amount of IP1 of Example Compound 2 in Test Example 1 as […].
A word on the inhibition: it is the change of the read-out against control, counted positive when it falls. On to `CCn1cc(Cn2cc(C)n(-c3cc(N4CCOC(C(F)F)C4)cc(C(F)(F)F)c3)c2=O)cn1` (centres unmarked) [Example 20, 3-{3-[2-(difluoromethyl)morpholin-4-yl]-5-(trifluoromethyl)phenyl}-1-[(1-ethyl-1H-pyrazol-4-yl)methyl]-4-methyl-1,3-dihydro-2H-imidazol-2-one], for which the inhibition at 30 µM came to 99%.

For the compound `CCn1cc(Cn2c(C)c(C)n(-c3cccc(N4CCO[C@H](C)C4)n3)c2=O)cn1` [Example 163, 1-[(1-ethyl-1H-pyrazol-4-yl)methyl]-4,5-dimethyl-3-{6-[(2R)-2-methylmorpholin-4-yl]pyridin-2-yl}-1,3-dihydro-2H-imidazol-2-one], the inhibition at 30 µM came to 96%. Same read-out and setting: under `CCn1cc(Cn2cc(C)n(-c3cc(C(F)(F)F)cc(N4CCOC(C)(C)C4)n3)c2=O)cn1` [Example 125, 3-[6-(2,2-dimethylmorpholin-4-yl)-4-(trifluoromethyl)pyridin-2-yl]-1-[(1-ethyl-1H-pyrazol-4-yl)methyl]-4-methyl-1,3-dihydro-2H-imidazol-2-one] stands 101%; under `CCn1cc(Cn2c(C)cn(-c3cc(N4CCO[C@H](C)C4)cc(Cl)c3F)c2=O)cn1` [Example 139, 1-{3-chloro-2-fluoro-5-[(2R)-2-methylmorpholin-4-yl]phenyl}-3-[(1-ethyl-1H-pyrazol-4-yl)methyl]-4-methyl-1,3-dihydro-2H-imidazol-2-one], 98%. Turning to `CCn1cc(Cn2c(C)cn(-c3cc(N4CCO[C@H](C)C4)cc(C4CC4)c3F)c2=O)cn1` [Example 140, 1-{3-cyclopropyl-2-fluoro-5-[(2R)-2-methylmorpholin-4-yl]phenyl}-3-[(1-ethyl-1H-pyrazol-4-yl)methyl]-4-methyl-1,3-dihydro-2H-imidazol-2-one], the inhibition at 30 µM stood at 98%. On the same count and under the same terms, next, `CCn1cc(Cn2ccn(-c3cc(N4CCOC5(CC5)C4)cc(C(F)(F)F)c3F)c2=O)cn1` [Example 43, 1-[(1-ethyl-1H-pyrazol-4-yl)methyl]-3-[2-fluoro-5-(4-oxa-7-azaspiro[2.5]octan-7-yl)-3-(trifluoromethyl)phenyl]-1,3-dihydro-2H-imidazol-2-one]: 100%; `CCn1cc(Cn2cc(C)n(-c3cc(C(F)(F)F)cc(OCC4CCCO4)n3)c2=O)cn1` (centres unmarked) [Example 106, 1-[(1-ethyl-1H-pyrazol-4-yl)methyl]-4-methyl-3-{6-[(oxolan-2-yl)methoxy]-4-(trifluoromethyl)pyridin-2-yl}-1,3-dihydro-2H-imidazol-2-one]: 102%; `CCn1cc(Cn2c(C)c(C)n(-c3cc(OCC(F)(F)F)cc(N4CCO[C@H](C)C4)c3)c2=O)cn1` [Example 47, 1-[(1-ethyl-1H-pyrazol-4-yl)methyl]-4,5-dimethyl-3-{3-[(2R)-2-methylmorpholin-4-yl]-5-(2,2,2-trifluoroethoxy)phenyl}-1,3-dihydro-2H-imidazol-2-one]: 101%.

For `CCn1cc(Cn2c(C)cn(-c3cc(N4CCC(F)(F)CC4)cc(C4CC4)c3F)c2=O)cn1` [Example 165, 1-[3-cyclopropyl-5-(4,4-difluoropiperidin-1-yl)-2-fluorophenyl]-3-[(1-ethyl-1H-pyrazol-4-yl)methyl]-4-methyl-1,3-dihydro-2H-imidazol-2-one], the inhibition at 30 µM was 97%. On the same count and under the same terms, next, `CCn1cc(Cn2c(C)nn(-c3cc(N4CCC(F)(F)CC4)cc(C(F)(F)F)c3F)c2=O)cn1` [Example 97, 2-[5-(4,4-difluoropiperidin-1-yl)-2-fluoro-3-(trifluoromethyl)phenyl]-4-[(1-ethyl-1H-pyrazol-4-yl)methyl]-5-methyl-2,4-dihydro-3H-1,2,4-triazol-3-one]: 102%; `CCn1cc(Cn2cc(C)n(-c3cc(OCOC)cc(C(F)(F)F)c3)c2=O)cn1` [Example 48, 1-[(1-ethyl-1H-pyrazol-4-yl)methyl]-3-[3-(methoxymethoxy)-5-(trifluoromethyl)phenyl]-4-methyl-1,3-dihydro-2H-imidazol-2-one]: 101%.

For `CCn1cc(Cn2cc(C)n(-c3cc(OCC4(F)CCC4)cc(C(F)(F)F)c3)c2=O)cn1` [Example 52, 1-[(1-ethyl-1H-pyrazol-4-yl)methyl]-3-{3-[(1-fluorocyclobutyl)methoxy]-5-(trifluoromethyl)phenyl}-4-methyl-1,3-dihydro-2H-imidazol-2-one], the inhibition at 30 µM amounted to 99%.

As for `CCn1cc(Cn2c(C)c(C)n(-c3cc(N4CCOC(F)(F)C4)cc(C(F)(F)F)c3F)c2=O)cn1` [Example 70, 1-[5-(2,2-difluoromorpholin-4-yl)-2-fluoro-3-(trifluoromethyl)phenyl]-3-[(1-ethyl-1H-pyrazol-4-yl)methyl]-4,5-dimethyl-1,3-dihydro-2H-imidazol-2-one], the inhibition at 30 µM was 100%. As to `Cc1nn(-c2cc(N3CCC(F)(F)C3)cc(C(F)(F)F)c2F)c(=O)n1Cc1cnn(C(C)C)c1` [Example 94, 2-[5-(3,3-difluoropyrrolidin-1-yl)-2-fluoro-3-(trifluoromethyl)phenyl]-5-methyl-4-{[1-(propan-2-yl)-1H-pyrazol-4-yl]methyl}-2,4-dihydro-3H-1,2,4-triazol-3-one], the inhibition at 30 µM turned out to be 99%. Still for that read-out and setting: under `Cc1cn(-c2cc(N3CCOC(C)(C)C3)cc(C(F)F)c2F)c(=O)n1Cc1cnn(C(C)C)c1` [Example 79, 1-[3-(difluoromethyl)-5-(2,2-dimethylmorpholin-4-yl)-2-fluorophenyl]-4-methyl-3-{[1-(propan-2-yl)-1H-pyrazol-4-yl]methyl}-1,3-dihydro-2H-imidazol-2-one] stands 98%; under `CCn1cc(Cn2cc(C)n(-c3cc(N4CCC(F)(F)C4)cc(C(F)(F)F)c3)c2=O)cn1` [Example 24, 3-[3-(3,3-difluoropyrrolidin-1-yl)-5-(trifluoromethyl)phenyl]-1-[(1-ethyl-1H-pyrazol-4-yl)methyl]-4-methyl-1,3-dihydro-2H-imidazol-2-one], 100%. Same read-out and setting: next, `CCn1cc(Cn2c(C)c(C)n(-c3cc(N4CCOC(F)(F)C4)cc(C(F)(F)F)c3)c2=O)cn1` [Example 63, 1-[3-(2,2-difluoromorpholin-4-yl)-5-(trifluoromethyl)phenyl]-3-[(1-ethyl-1H-pyrazol-4-yl)methyl]-4,5-dimethyl-1,3-dihydro-2H-imidazol-2-one]: 100%; `Cc1nn(-c2cc(N(C)C3CCOCC3)cc(C(F)(F)F)c2F)c(=O)n1Cc1cnn(C(C)C)c1` [Example 92, 2-{2-fluoro-5-[methyl(oxan-4-yl)amino]-3-(trifluoromethyl)phenyl}-5-methyl-4-{[1-(propan-2-yl)-1H-pyrazol-4-yl]methyl}-2,4-dihydro-3H-1,2,4-triazol-3-one]: 99%; `CCn1cc(Cn2cc(C)n(-c3cc(OCC(F)(F)F)cc(N(C)C4CCOCC4)c3)c2=O)cn1` [Example 88, 1-[(1-ethyl-1H-pyrazol-4-yl)methyl]-4-methyl-3-{3-[methyl(oxan-4-yl)amino]-5-(2,2,2-trifluoroethoxy)phenyl}-1,3-dihydro-2H-imidazol-2-one]: 99%.

The same assay, now with this note: relative value, inhibition rate of Example Compound 2 in Test Example 1 defined as 100%, 30 µM.
Regarding `CCn1cc(Cn2ccn(-c3cc(-c4ccc(F)cc4)cc(C4CC4(F)F)c3F)c2=O)cn1` (centres unmarked) [Example 145, 1-[5-(2,2-difluorocyclopropyl)-4,4′-difluoro[1,1′-biphenyl]-3-yl]-3-[(1-ethyl-1H-pyrazol-4-yl)methyl]-1,3-dihydro-2H-imidazol-2-one], the “Inhibition Rate at 30 μM” value worked out at 102%.
